Results reported in ChEMBL document CHEMBL3576778, “Structure-Activity Relationship Studies of a Series of Semisynthetic Lipopeptides Leading to the Discovery of Surotomycin, a Novel Cyclic Lipopeptide Being Developed for the Treatment of Clostridium difficile-Associated Diarrhea” (J Med Chem, 2015).
Values after ≈ are worked out from the molar mass of the structure shown.

Legend:
Format in all cases: functional
Staphylococcus aureus [1] = test: Potency index, ratio of MIC for daptomycin to MIC for test compound against daptomycin-non-susceptible Staphylococcus aureus 5004 incubated anaerobically at 37 degC for 48 hrs by agar dilution method
Staphylococcus aureus [2] = test: Potency index, ratio of MIC for daptomycin to MIC for test compound against daptomycin-non-susceptible Staphylococcus aureus 1145 incubated anaerobically at 37 degC for 48 hrs by agar dilution method
Staphylococcus aureus [3] = test: Potency index, ratio of MIC for daptomycin to MIC for test compound against daptomycin-non-susceptible Staphylococcus aureus 42 incubated anaerobically at 37 degC for 48 hrs by agar dilution method
Staphylococcus aureus [4] = test: Potency index, ratio of MIC for daptomycin to MIC for test compound against daptomycin-non-susceptible Staphylococcus aureus 278 incubated anaerobically at 37 degC for 48 hrs by agar dilution method
Staphylococcus aureus [5] = test: Potency index, ratio of MIC for daptomycin to MIC for test compound against daptomycin-non-susceptible Staphylococcus aureus 5003 incubated anaerobically at 37 degC for 48 hrs by agar dilution method
Staphylococcus aureus [6] = test: Antimicrobial activity against daptomycin-non-susceptible Staphylococcus aureus 1616 incubated anaerobically at 37 degC for 48 hrs by agar dilution method; settings: Staphylococcus aureus, 1616, 48 h
Staphylococcus aureus [7] = test: Antimicrobial activity against daptomycin-non-susceptible Staphylococcus aureus 5012 incubated anaerobically at 37 degC for 48 hrs by agar dilution method; settings: Staphylococcus aureus, 5012, 48 h
Staphylococcus aureus [8] = test: Potency index, ratio of MIC for daptomycin to MIC for test compound against daptomycin-non-susceptible Staphylococcus aureus 5005 incubated anaerobically at 37 degC for 48 hrs by agar dilution method
Staphylococcus aureus [9] = test: Antimicrobial activity against daptomycin-non-susceptible Staphylococcus aureus 5091 incubated anaerobically at 37 degC for 48 hrs by agar dilution method; settings: Staphylococcus aureus, 5091, 48 h
Enterococcus faecium = test: Antimicrobial activity against daptomycin-resistant Enterococcus faecium ATCC 6569 incubated anaerobically at 37 degC for 48 hrs by agar dilution method; settings: ATCC 6569, 48 h
Staphylococcus aureus [10] = test: Antimicrobial activity against daptomycin-non-susceptible Staphylococcus aureus 399 incubated anaerobically at 37 degC for 48 hrs by agar dilution method; settings: Staphylococcus aureus, 399, 48 h
Staphylococcus aureus [11] = test: Potency index, ratio of MIC for daptomycin to MIC for test compound against daptomycin-non-susceptible Staphylococcus aureus 5080 incubated anaerobically at 37 degC for 48 hrs by agar dilution method
Staphylococcus aureus [12] = test: Potency index, ratio of MIC for daptomycin to MIC for test compound against daptomycin-non-susceptible Staphylococcus aureus 5030 incubated anaerobically at 37 degC for 48 hrs by agar dilution method
Enterococcus faecalis = test: Potency index, ratio of MIC for daptomycin to MIC for test compound against daptomycin-resistant Enterococcus faecalis ATCC 49452 incubated anaerobically at 37 degC for 48 hrs by agar dilution method
Staphylococcus aureus [13] = test: Antimicrobial activity against daptomycin-non-susceptible Staphylococcus aureus 5005 incubated anaerobically at 37 degC for 48 hrs by agar dilution method; settings: Staphylococcus aureus, 5005, 48 h
Staphylococcus aureus [14] = test: Antimicrobial activity against daptomycin-non-susceptible Staphylococcus aureus 5033 incubated anaerobically at 37 degC for 48 hrs by agar dilution method; settings: Staphylococcus aureus, 5033, 48 h
Staphylococcus aureus [15] = test: Antimicrobial activity against daptomycin-non-susceptible Staphylococcus aureus 1146 incubated anaerobically at 37 degC for 48 hrs by agar dilution method; settings: Staphylococcus aureus, 1146, 48 h
Staphylococcus aureus [16] = test: Antimicrobial activity against daptomycin-non-susceptible Staphylococcus aureus 1179 incubated anaerobically at 37 degC for 48 hrs by agar dilution method; settings: Staphylococcus aureus, 1179, 48 h
Staphylococcus aureus [17] = test: Potency index, ratio of MIC for daptomycin to MIC for test compound against daptomycin-non-susceptible Staphylococcus aureus 5017 incubated anaerobically at 37 degC for 48 hrs by agar dilution method
Clostridioides difficile = test: Antimicrobial activity against daptomycin-resistant Clostridium difficile NAP1 incubated anaerobically at 37 degC for 48 hrs by agar dilution method; settings: NAP1, 48 h
Staphylococcus aureus [18] = test: Antimicrobial activity against daptomycin-non-susceptible Staphylococcus aureus 5030 incubated anaerobically at 37 degC for 48 hrs by agar dilution method; settings: Staphylococcus aureus, 5030, 48 h
Staphylococcus aureus [19] = test: Potency index, ratio of MIC for daptomycin to MIC for test compound against daptomycin-non-susceptible Staphylococcus aureus 5016 incubated anaerobically at 37 degC for 48 hrs by agar dilution method
Staphylococcus aureus [20] = test: Potency index, ratio of MIC for daptomycin to MIC for test compound against daptomycin-non-susceptible Staphylococcus aureus 5034 incubated anaerobically at 37 degC for 48 hrs by agar dilution method
Staphylococcus aureus [21] = test: Potency index, ratio of MIC for daptomycin to MIC for test compound against daptomycin-non-susceptible Staphylococcus aureus 1326 incubated anaerobically at 37 degC for 48 hrs by agar dilution method
Staphylococcus aureus [22] = test: Potency index, ratio of MIC for daptomycin to MIC for test compound against daptomycin-non-susceptible Staphylococcus aureus 5091 incubated anaerobically at 37 degC for 48 hrs by agar dilution method
Staphylococcus aureus [23] = test: Antimicrobial activity against daptomycin-non-susceptible Staphylococcus aureus 5034 incubated anaerobically at 37 degC for 48 hrs by agar dilution method; settings: Staphylococcus aureus, 5034, 48 h
Staphylococcus aureus [24] = test: Potency index, ratio of MIC for daptomycin to MIC for test compound against daptomycin-non-susceptible Staphylococcus aureus 5008 incubated anaerobically at 37 degC for 48 hrs by agar dilution method
Staphylococcus aureus [25] = test: Potency index, ratio of MIC for daptomycin to MIC for test compound against daptomycin-non-susceptible Staphylococcus aureus 5063 incubated anaerobically at 37 degC for 48 hrs by agar dilution method
Staphylococcus aureus [26] = test: Antimicrobial activity against daptomycin-non-susceptible Staphylococcus aureus 5006 incubated anaerobically at 37 degC for 48 hrs by agar dilution method; settings: Staphylococcus aureus, 5006, 48 h
Staphylococcus aureus [27] = test: Antimicrobial activity against daptomycin-non-susceptible Staphylococcus aureus 5063 incubated anaerobically at 37 degC for 48 hrs by agar dilution method; settings: Staphylococcus aureus, 5063, 48 h

## CCCCCc1ccc(/C(C)=C/C(=O)N[C@@H](Cc2c[nH]c3ccccc23)C(=O)N[C@H](CC(N)=O)C(=O)N[C@@H](CC(=O)O)C(=O)N[C@@H]2C(=O)NCC(=O)N[C@@H](CCCN)C(=O)N[C@@H](CC(=O)O)C(=O)N[C@H](C)C(=O)N[C@@H](CC(=O)O)C(=O)NCC(=O)N[C@H](CO)C(=O)N[C@@H]([C@@H](C)CC(=O)O)C(=O)N[C@@H](CC(=O)c3ccccc3N)C(=O)O[C@@H]2C)cc1
Staphylococcus aureus [1]
  Ratio: 2
Staphylococcus aureus [2]
  Ratio: 2
Staphylococcus aureus [3]
  Ratio: 2
Staphylococcus aureus [4]
  Ratio: 2
Staphylococcus aureus [5]
  Ratio: 2
Staphylococcus aureus [6]
  MIC: 2 mg/L (≈ 1.19 µM)
Staphylococcus aureus [7]
  MIC: 0.25 mg/L (≈ 0.149 µM)
Staphylococcus aureus [8]
  Ratio: 2
Staphylococcus aureus [9]
  MIC: 0.5 mg/L (≈ 0.297 µM)
Enterococcus faecium
  MIC: 4 mg/L (≈ 2.38 µM)
Staphylococcus aureus [10]
  MIC: 0.125 mg/L (≈ 0.0744 µM)
Staphylococcus aureus [11]
  Ratio: 2
Staphylococcus aureus [12]
  Ratio: 2
Enterococcus faecalis
  Ratio: >8
Staphylococcus aureus [13]
  MIC: 1 mg/L (≈ 0.595 µM)
Staphylococcus aureus [14]
  MIC: 0.25 mg/L (≈ 0.149 µM)
Staphylococcus aureus [15]
  MIC: 0.25 mg/L (≈ 0.149 µM)
Staphylococcus aureus [16]
  MIC: 0.25 mg/L (≈ 0.149 µM)
Staphylococcus aureus [17]
  Ratio: 2
Clostridioides difficile
  MIC: 0.5 mg/L (≈ 0.297 µM)
Staphylococcus aureus [18]
  MIC: 1 mg/L (≈ 0.595 µM)
Staphylococcus aureus [19]
  Ratio: 2
Staphylococcus aureus [20]
  Ratio: 2
Staphylococcus aureus [21]
  Ratio: 2
Staphylococcus aureus [22]
  Ratio: 2
Staphylococcus aureus [23]
  MIC: 0.5 mg/L (≈ 0.297 µM)
Staphylococcus aureus [24]
  Ratio: 2
Staphylococcus aureus [25]
  Ratio: 2
Staphylococcus aureus [26]
  MIC: 0.5 mg/L (≈ 0.297 µM)
Staphylococcus aureus [27]
  MIC: 1 mg/L (≈ 0.595 µM)
